20 compounds from PubChem BioAssay (NCI) can be followed below.

Where “and” joins values, the source holds several entries; their conditions need not be identical. Equal values may be shown once.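 Grown in 96-well plates, cells were treated for 48 hours with each compound at five concentrations. Insufficient inhibition: endpoint recorded as highest concentration tested. TGI denotes the concentration required for complete inhibition of growth.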

Test systems include HCT-116 colon; HOP-62 NSCLC; OVCAR-3 ovarian; DMS 114 small cell lung; M19-MEL melanoma; KM20L2 colon; SF-295 CNS; OVCAR-4 ovarian; 786-0 renal; SK-MEL-5 melanoma; A498 renal; RXF 393 renal.
Common to all, as to test: DTP human tumour cell line panel, 48 h

Take `COc1ccc2c(c1)c(=O)c1c(NCCCN(C)C)ccc3ncn2c31`: the total growth inhibition concentration (TGI) with HCT-116 colon came to 13 µM; in the assay on HOP-62 NSCLC, 15 µM; in the assay with OVCAR-3 ovarian, 26.7 µM; in the assay on DMS 114 small cell lung it was 22.6 µM; with M19-MEL melanoma it was 24.8 µM; in the assay on KM20L2 colon, 17.1 µM. Also, the TGI turned out to be 15.2 µM in the assay with SF-295 CNS; 13 µM in the assay on OVCAR-4 ovarian; 14.9 µM in the assay with 786-0 renal; 24.3 µM in the assay on SK-MEL-5 melanoma; 24.2 µM in the assay on A498 renal; 2.28 µM with RXF 393 renal.

Regarding `COc1ccc2c(c1)C=C(C(C)(C)C)NS2(=O)=O`, the TGI in the assay with HCT-116 colon, with HOP-62 NSCLC, with OVCAR-3 ovarian, with DMS 114 small cell lung, in the assay on M19-MEL melanoma and in the assay on KM20L2 colon was above 100 µM each time. The TGI in the assay with SF-295 CNS, with OVCAR-4 ovarian, with 786-0 renal, with SK-MEL-5 melanoma, in the assay with A498 renal and in the assay on RXF 393 renal was above 100 µM each time.

Consider `CC(c1ccccc1)C(O)S(=O)(=O)O` (stereo not drawn), for which the TGI in the assay with HCT-116 colon, in the assay on OVCAR-3 ovarian, in the assay on DMS 114 small cell lung, with M19-MEL melanoma, in the assay on KM20L2 colon and with SF-295 CNS was above 100 µM throughout. For the same compound, the TGI with OVCAR-4 ovarian, in the assay with 786-0 renal, in the assay with A498 renal and with RXF 393 renal was above 100 µM in each case.

On to `CCOC(=O)/C=C/c1c[nH]c(=O)[nH]c1=O`, for which the TGI in the assay with HCT-116 colon, in the assay with HOP-62 NSCLC, in the assay with OVCAR-3 ovarian, in the assay with DMS 114 small cell lung, in the assay on M19-MEL melanoma and with KM20L2 colon was above 75 µM each time. The TGI with SF-295 CNS, in the assay with OVCAR-4 ovarian, in the assay on SK-MEL-5 melanoma, in the assay with A498 renal and with RXF 393 renal was above 75 µM each time.

With `COc1cc(OC)cc(C(=O)Cc2c(C(=O)c3ccccc3)c3ccccc3n2C(=O)c2ccccc2)c1`, the TGI in the assay with HCT-116 colon, in the assay on HOP-62 NSCLC, in the assay on OVCAR-3 ovarian, with DMS 114 small cell lung, in the assay on M19-MEL melanoma and in the assay with KM20L2 colon was above 100 µM throughout. Moreover, the TGI is 94.9 µM with SF-295 CNS; above 100 µM in the assay on OVCAR-4 ovarian; above 100 µM in the assay on 786-0 renal; 35.1 µM in the assay with SK-MEL-5 melanoma; 92.5 µM in the assay on A498 renal; above 100 µM in the assay with RXF 393 renal.

For the compound `CCOC(=O)C1=C(C)N(C2OC(COC(C)=O)C(OC(C)=O)C(OC(C)=O)C2OC(C)=O)C(=O)NC1c1ccccc1` (stereo not drawn), the TGI in the assay with HCT-116 colon, in the assay on HOP-62 NSCLC, in the assay on OVCAR-3 ovarian, in the assay on DMS 114 small cell lung, in the assay with M19-MEL melanoma and in the assay on KM20L2 colon was above 100 µM each time. The TGI in the assay on SF-295 CNS, in the assay with OVCAR-4 ovarian, in the assay with SK-MEL-5 melanoma and in the assay with A498 renal was above 100 µM in each case.

As for `COC(=O)C1SC[C@H]2C(=O)N(c3ccccc3)C(=O)N12` (stereo partly drawn), the TGI in the assay on HCT-116 colon, with HOP-62 NSCLC, with OVCAR-3 ovarian, in the assay on SF-295 CNS, with OVCAR-4 ovarian and in the assay with 786-0 renal was above 100 µM in each case. Moreover, the TGI in the assay on SK-MEL-5 melanoma, with A498 renal and with RXF 393 renal was above 100 µM each time.

Take `O=C(N[C@@H](Cc1ccccc1)B(O)O)[C@H](Cc1cccc2ccccc12)NC(=O)N1CCOCC1`: the TGI in the assay on HCT-116 colon was 0.00208 µM; in the assay with HOP-62 NSCLC it was 0.0316 µM and 0.0488 µM; with OVCAR-3 ovarian it was 0.00255 µM and 0.0196 µM; in the assay with SF-295 CNS, 0.0304 µM and 0.0239 µM; in the assay on OVCAR-4 ovarian it was 0.0301 µM and 0.204 µM; with 786-0 renal it was 0.271 µM and 0.12 µM. For the same compound, the TGI with SK-MEL-5 melanoma was 0.00392 µM and 0.014 µM; with A498 renal it was 0.212 µM; in the assay with RXF 393 renal, 0.00379 µM.

As for `OC1(C2(c3ccc(Cl)cc3)CCCC2)c2ccccc2C2=NCCN21` (stereo not drawn), the TGI worked out at 24.4 µM in the assay with HCT-116 colon; 32.6 µM with HOP-62 NSCLC; 30.9 µM in the assay on OVCAR-3 ovarian; 30.7 µM in the assay on SF-295 CNS; 28.8 µM in the assay with OVCAR-4 ovarian; 27.3 µM with 786-0 renal. Further, the concentration for total growth inhibition (TGI) in the assay with SK-MEL-5 melanoma worked out at 25.1 µM; with A498 renal it was 29.4 µM; with RXF 393 renal it was 9.51 µM.

For the compound `COc1cc2c3c(c1OC)C(=O)C(=O)C1=C3N(CCC1)CC2`, the TGI with HCT-116 colon was 47.3 µM; with HOP-62 NSCLC, 96.9 µM; in the assay with OVCAR-3 ovarian, 73.3 µM; in the assay on SF-295 CNS it was 76.9 µM; in the assay on OVCAR-4 ovarian, 62.2 µM; in the assay with 786-0 renal, above 100 µM. Moreover, the TGI was above 100 µM in the assay on SK-MEL-5 melanoma, 92.6 µM with A498 renal and above 100 µM with RXF 393 renal.

As for `NS(=O)(=O)c1nnc(NC(=O)/C=C/C(=O)O)s1`, the TGI with HCT-116 colon, in the assay on HOP-62 NSCLC, in the assay with OVCAR-3 ovarian, in the assay with SF-295 CNS, in the assay on OVCAR-4 ovarian and in the assay with 786-0 renal was above 100 µM each time. Further, the TGI in the assay with SK-MEL-5 melanoma, in the assay with A498 renal and in the assay with RXF 393 renal was above 100 µM throughout.

With `O=C(Nc1nccs1)NS(=O)(=O)n1cnc2ccccc21`, the TGI with HCT-116 colon, with HOP-62 NSCLC, in the assay on OVCAR-3 ovarian, in the assay with SF-295 CNS, with OVCAR-4 ovarian and with 786-0 renal was above 100 µM each time. Also, the TGI in the assay with SK-MEL-5 melanoma, with A498 renal and in the assay with RXF 393 renal was above 100 µM in each case.

Consider `COc1ccc(C(=O)N(Cc2cccnc2)C(=S)N(Cc2cccnc2)C(=O)c2ccc(OC)cc2)cc1`, for which the TGI in the assay with HCT-116 colon, in the assay with HOP-62 NSCLC, in the assay with OVCAR-3 ovarian, in the assay with SF-295 CNS, in the assay with OVCAR-4 ovarian and with 786-0 renal was above 100 µM throughout. The TGI in the assay on SK-MEL-5 melanoma, in the assay with A498 renal and with RXF 393 renal was above 100 µM in each case.

On to `CCOC1=NC(C(F)(F)F)(C(F)(F)F)N=C(N2CCCCC2)O1`, for which the TGI in the assay with HCT-116 colon, in the assay on HOP-62 NSCLC, in the assay on OVCAR-3 ovarian, in the assay with SF-295 CNS, in the assay on OVCAR-4 ovarian and with 786-0 renal was above 100 µM in each case. Also, the TGI in the assay with SK-MEL-5 melanoma, in the assay with A498 renal and with RXF 393 renal was above 100 µM in each case.

Consider `CC1(C)CC[C@]2(C(=O)O)CC[C@]3(C)C(=CC[C@@H]4[C@@]5(C)CC[C@H](OC6OC(CO)C(O)C(O)C6O)C(C)(C)[C@@H]5CC[C@]43C)[C@@H]2C1` (stereo partly drawn), for which the TGI with HCT-116 colon amounted to 3.13 µM; in the assay with HOP-62 NSCLC, 3.14 µM; in the assay with OVCAR-3 ovarian, 3.01 µM; in the assay with SF-295 CNS, 3.2 µM; in the assay with OVCAR-4 ovarian it was 3 µM; in the assay with 786-0 renal it was 3.23 µM. The results for the TGI with SK-MEL-5 melanoma, in the assay on A498 renal and in the assay on RXF 393 renal were 3.54 µM, 3.82 µM and 3.77 µM, respectively.

In the case of `CNC(=O)OCC1=C(COC(=O)NC)C(C)N(c2ccccc2)C1` (stereo not drawn), the TGI in the assay on HCT-116 colon was above 100 µM; in the assay with HOP-62 NSCLC, above 100 µM; with OVCAR-3 ovarian, 92.7 µM; in the assay on SF-295 CNS it was above 100 µM; in the assay with OVCAR-4 ovarian it was above 100 µM; in the assay with 786-0 renal, above 100 µM. For the same compound, the TGI is 41.6 µM in the assay on SK-MEL-5 melanoma, 7.51 µM in the assay on A498 renal and above 100 µM in the assay on RXF 393 renal.

Take `OC[C@@H](O)[C@H](O)[C@@H](O)/C=N/Nc1ccc(Cl)nn1`: the TGI with HCT-116 colon, in the assay on HOP-62 NSCLC, in the assay with OVCAR-3 ovarian, with SF-295 CNS, in the assay with OVCAR-4 ovarian and in the assay with 786-0 renal was above 100 µM in each case. Further, the TGI in the assay with SK-MEL-5 melanoma, with A498 renal and with RXF 393 renal was above 100 µM in each case.

`CCOc1cc(/C=C2\N=C(c3ccccc3)N(c3nc4ccccc4s3)C2=O)ccc1O`: the TGI in the assay on HCT-116 colon, in the assay with HOP-62 NSCLC, with OVCAR-3 ovarian, with SF-295 CNS, in the assay with OVCAR-4 ovarian and with 786-0 renal was above 100 µM in each case. The total growth inhibition concentration (TGI) in the assay with SK-MEL-5 melanoma was 41.4 µM; with A498 renal, above 100 µM; in the assay with RXF 393 renal it was above 100 µM.

For `COc1ccc(NC(=O)CC(=O)N2N=C(C)C(N=Nc3ccc(C(=O)O)cc3)C2=O)cc1` (stereo not drawn), the total growth inhibition concentration (TGI) with HCT-116 colon, in the assay with HOP-62 NSCLC, in the assay on OVCAR-3 ovarian, in the assay on SF-295 CNS, with OVCAR-4 ovarian and in the assay on 786-0 renal was above 100 µM each time. Also, the TGI in the assay on SK-MEL-5 melanoma, in the assay with A498 renal and in the assay on RXF 393 renal was above 100 µM each time.

With `NC(Cc1ccc(O)cn1)C(=O)O` (stereo not drawn), the TGI in the assay with HCT-116 colon, in the assay with HOP-62 NSCLC, in the assay with OVCAR-3 ovarian, in the assay on SF-295 CNS, with OVCAR-4 ovarian and in the assay on 786-0 renal was above 100 µM throughout. In addition, the TGI in the assay on SK-MEL-5 melanoma, in the assay with A498 renal and with RXF 393 renal was above 100 µM in each case.

As a reminder, the TGI is the concentration at which net growth stops. A low value points to greater sensitivity of the cells.
